What follows are compounds tested against T1, HEK cells stably transfected with tetracycline inducible hNR1 and hNR2A (Homo sapiens, UniProt Q05586+Q12879) (assay: Assay 1: Cell-Based Assay, cytosolic calcium response to positive allosteric modulators (with 30 μM glycine and 300 nM L-glutamate, EC30)). Conditions: Table 3; cytosolic calcium response, with 30 μM glycine and 300 nM L-glutamate (EC30); — = no plateau was reached.
T1 construct: expressed in transfected cells; host or cells: HEK cells, stably transfected, tetracycline/doxycycline inducible
T1 sequence (Q12879 23-1464, other chains not shown): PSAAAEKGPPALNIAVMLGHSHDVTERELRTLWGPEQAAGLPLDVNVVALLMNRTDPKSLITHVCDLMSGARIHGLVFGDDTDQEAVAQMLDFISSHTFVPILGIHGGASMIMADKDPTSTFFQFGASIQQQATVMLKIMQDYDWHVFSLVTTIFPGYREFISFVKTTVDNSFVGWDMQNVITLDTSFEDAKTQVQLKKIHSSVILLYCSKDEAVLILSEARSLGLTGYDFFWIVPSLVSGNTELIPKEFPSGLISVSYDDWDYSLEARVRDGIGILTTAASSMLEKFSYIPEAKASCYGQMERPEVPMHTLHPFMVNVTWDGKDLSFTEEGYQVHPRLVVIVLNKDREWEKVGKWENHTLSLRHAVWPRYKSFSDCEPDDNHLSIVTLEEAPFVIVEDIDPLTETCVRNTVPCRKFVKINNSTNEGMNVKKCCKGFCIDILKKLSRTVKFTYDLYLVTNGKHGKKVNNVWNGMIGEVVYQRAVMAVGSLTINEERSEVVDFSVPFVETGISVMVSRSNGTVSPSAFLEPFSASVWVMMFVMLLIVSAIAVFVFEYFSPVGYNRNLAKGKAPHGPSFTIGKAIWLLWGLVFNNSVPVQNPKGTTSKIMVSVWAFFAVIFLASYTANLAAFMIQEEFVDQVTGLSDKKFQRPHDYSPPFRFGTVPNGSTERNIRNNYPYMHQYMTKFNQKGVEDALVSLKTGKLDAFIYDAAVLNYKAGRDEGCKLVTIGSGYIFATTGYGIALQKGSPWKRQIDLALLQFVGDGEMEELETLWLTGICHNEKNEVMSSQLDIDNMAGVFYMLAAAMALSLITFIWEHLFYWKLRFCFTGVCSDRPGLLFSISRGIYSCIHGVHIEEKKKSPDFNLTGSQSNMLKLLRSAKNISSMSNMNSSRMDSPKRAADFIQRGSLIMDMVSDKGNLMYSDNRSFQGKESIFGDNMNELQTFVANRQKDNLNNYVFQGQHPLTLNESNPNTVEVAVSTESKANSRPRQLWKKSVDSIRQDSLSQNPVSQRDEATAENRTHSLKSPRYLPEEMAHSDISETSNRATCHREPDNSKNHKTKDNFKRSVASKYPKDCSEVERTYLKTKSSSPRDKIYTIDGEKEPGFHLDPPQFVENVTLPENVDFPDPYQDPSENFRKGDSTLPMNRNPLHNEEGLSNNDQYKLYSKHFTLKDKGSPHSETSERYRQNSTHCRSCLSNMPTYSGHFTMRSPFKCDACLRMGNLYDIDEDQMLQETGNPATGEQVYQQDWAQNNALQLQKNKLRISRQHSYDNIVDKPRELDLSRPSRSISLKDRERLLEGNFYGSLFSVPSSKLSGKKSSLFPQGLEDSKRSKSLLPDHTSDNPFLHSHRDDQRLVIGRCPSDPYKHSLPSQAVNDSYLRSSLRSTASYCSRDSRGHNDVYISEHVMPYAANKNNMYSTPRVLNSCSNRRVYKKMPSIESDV
Procedure, shortened: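 Cells induced 24 h with 7.5 μg mL^−1 doxycycline plus 500 μM (+)-ketamine, loaded 60 min at 37 °C with calcium dye in Mg-free HBSS (1.8 mM Ca, probenecid, 10 μM (+)-ketamine, pH 7.15). Peak RFU over 5 min after compound addition, scaled to 100 μM L-glutamate (100%) and 0 μM (0%); four-parameter Hill fit for EC50, max % if no plateau.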

SMILES	EC50 [µM]
CNC(=O)c1c(C)sc2nc(Cc3ccc4c(c3)CC4)cc(=O)n12 [compound 32, 7-(4-bicyclo[4.2.0]octa-1,3,5-trienylmethyl)-N,2-dimethyl-5-oxo-thiazolo[3,2-a]pyrimidine-3-carboxamide]	5.95
Cc1sc2nc(Oc3cccc(C(F)(F)F)c3)c(F)c(=O)n2c1C1CC1CO (centres unmarked) [compound 34, 6-fluoro-3-[2-(hydroxymethyl)cyclopropyl]-2-methyl-7-[3-(trifluoromethyl)phenoxy]thiazolo[3,2-a]pyrimidin-5-one]	24.5
Cc1sc2nc(Cc3cccc(C#N)c3F)cc(=O)n2c1C1CC1C(F)(F)F (centres unmarked) [compound 38, 2-fluoro-3-[[2-methyl-5-oxo-3-[2-(trifluoromethyl)cyclopropyl]thiazolo[3,2-a]pyrimidin-7-yl]methyl]benzonitrile]	0.533
CCNC(=O)c1c(C(F)(F)F)sc2nc(Cn3nc(C(F)(F)F)cc3Cl)cc(=O)n12 [compound 43, 7-[[5-chloro-3-(trifluoromethyl)pyrazol-1-yl]methyl]-N-ethyl-5-oxo-2-(trifluoromethyl)thiazolo[3,2-a]pyrimidine-3-carboxamide]	0.362
CCNC(=O)c1c(C(F)(F)F)sc2nc(Cn3nc(Cl)cc3C(F)(F)F)cc(=O)n12 [compound 44, 7-[[3-chloro-5-(trifluoromethyl)pyrazol-1-yl]methyl]-N-ethyl-5-oxo-2-(trifluoromethyl)thiazolo[3,2-a]pyrimidine-3-carboxamide]	0.685
CCNC(=O)c1c(C(F)(F)F)sc2nc(Cn3nc(C(F)(F)F)cc3C)cc(=O)n12 [compound 45, N-ethyl-7-[[5-methyl-3-(trifluoromethyl)pyrazol-1-yl]methyl]-5-oxo-2-(trifluoromethyl)thiazolo[3,2-a]pyrimidine-3-carboxamide]	1.25
CCNC(=O)c1c(C(F)(F)F)sc2nc(Cn3nc(C)cc3C(F)(F)F)cc(=O)n12 [compound 46, N-ethyl-7-[[3-methyl-5-(trifluoromethyl)pyrazol-1-yl]methyl]-5-oxo-2-(trifluoromethyl)thiazolo[3,2-a]pyrimidine-3-carboxamide]	7.04
Cc1sc2nc(Cc3cccc(C(F)(F)F)c3F)cc(=O)n2c1-c1ncc[nH]1 [compound 47, 7-[[2-fluoro-3-(trifluoromethyl)phenyl]methyl]-3-(1H-imidazol-2-yl)-2-methyl-thiazolo[3,2-a]pyrimidin-5-one]	5.14
Cc1sc2nc(Cn3nc(C(F)(F)F)cc3C)cc(=O)n2c1C(=O)NCC(F)(F)F [compound 52, 2-methyl-7-[[5-methyl-3-(trifluoromethyl)pyrazol-1-yl]methyl]-5-oxo-N-(2,2,2-trifluoroethyl)thiazolo[3,2-a]pyrimidine-3-carboxamide]	8.76
CNC(=O)c1c(C(F)(F)F)sc2nc(Cn3nc(C(F)(F)F)cc3C3CC3)cc(=O)n12 [compound 53, 7-[[5-cyclopropyl-3-(trifluoromethyl)pyrazol-1-yl]methyl]-N-methyl-5-oxo-2-(trifluoromethyl)thiazolo[3,2-a]pyrimidine-3-carboxamide]	0.635
CNC(=O)c1c(C(F)(F)F)sc2nc(Cn3nc(C4CC4)cc3C(F)(F)F)cc(=O)n12 [compound 54, 7-[[3-cyclopropyl-5-(trifluoromethyl)pyrazol-1-yl]methyl]-N-methyl-5-oxo-2-(trifluoromethyl)thiazolo[3,2-a]pyrimidine-3-carboxamide]	2.2
CNC(=O)c1c(C(F)(F)F)sc2nc(Cn3nc(C(F)(F)F)cc3Cl)cc(=O)n12 [compound 55, 7-[[5-chloro-3-(trifluoromethyl)pyrazol-1-yl]methyl]-N-methyl-5-oxo-2-(trifluoromethyl)thiazolo[3,2-a]pyrimidine-3-carboxamide]	1.16
CNC(=O)c1c(C(F)(F)F)sc2nc(Cn3nc(Cl)cc3C(F)(F)F)cc(=O)n12 [compound 56, 7-[[3-chloro-5-(trifluoromethyl)pyrazol-1-yl]methyl]-N-methyl-5-oxo-2-(trifluoromethyl)thiazolo[3,2-a]pyrimidine-3-carboxamide]	2.27
Cc1sc2nc(Cn3nc(C(F)(F)F)cc3C3CC3)cc(=O)n2c1C(=O)NCC(F)(F)F [compound 57, 7-[[5-cyclopropyl-3-(trifluoromethyl)pyrazol-1-yl]methyl]-2-methyl-5-oxo-N-(2,2,2-trifluoroethyl)thiazolo[3,2-a]pyrimidine-3-carboxamide]	0.627
Cc1sc2nc(Cn3nc(C4CC4)cc3C(F)(F)F)cc(=O)n2c1C(=O)NCC(F)(F)F [compound 58, 7-[[3-cyclopropyl-5-(trifluoromethyl)pyrazol-1-yl]methyl]-2-methyl-5-oxo-N-(2,2,2-trifluoroethyl)thiazolo[3,2-a]pyrimidine-3-carboxamide]	6.53
CNC(=O)c1c(C(F)(F)F)sc2nc(Cn3nc(C(F)(F)F)cc3C)cc(=O)n12 [compound 61, N-methyl-7-[[5-methyl-3-(trifluoromethyl)pyrazol-1-yl]methyl]-5-oxo-2-(trifluoromethyl)thiazolo[3,2-a]pyrimidine-3-carboxamide]	8.06

Next, values leading:

EC50 [µM]	SMILES
2.57	CNC(=O)c1c(C)sc2nc(Cc3cccc(C(F)F)c3F)c(F)c(=O)n12 [compound 30, 7-[[3-(difluoromethyl)-2-fluoro-phenyl]methyl]-6-fluoro-N,2-dimethyl-5-oxo-thiazolo[3,2-a]pyrimidine-3-carboxamide]
4.17	CCNC(=O)c1c(C)sc2nc(Cc3cccc(C(F)F)c3F)c(F)c(=O)n12 [compound 31, 7-[[3-(difluoromethyl)-2-fluoro-phenyl]methyl]-N-ethyl-6-fluoro-2-methyl-5-oxo-thiazolo[3,2-a]pyrimidine-3-carboxamide]
6.43	CCNC(=O)c1c(C)sc2nc(Cc3cccc(C4(O)CC4)c3F)cc(=O)n12 [compound 33, N-ethyl-7-[[2-fluoro-3-(1-hydroxycyclopropyl)phenyl]methyl]-2-methyl-5-oxo-thiazolo[3,2-a]pyrimidine-3-carboxamide]
3.99	CCNC(=O)c1c(C)sc2nc(Cc3cccc(C4(F)CC4)c3F)cc(=O)n12 [compound 35, N-ethyl-7-[[2-fluoro-3-(1-fluorocyclopropyl)phenyl]methyl]-2-methyl-5-oxo-thiazolo[3,2-a]pyrimidine-3-carboxamide]
1.72	C=C(CF)c1cccc(Cc2cc(=O)n3c(C(=O)NCC)c(C)sc3n2)c1F [compound 36, N-ethyl-7-[[2-fluoro-3-[1-(fluoromethyl)vinyl]phenyl]methyl]-2-methyl-5-oxo-thiazolo[3,2-a]pyrimidine-3-carboxamide]
9.02	C#Cc1cc(F)c(F)cc1Cc1cc(=O)n2c(C(=O)NC)c(C)sc2n1 [compound 37, 7-[(2-ethynyl-4,5-difluoro-phenyl)methyl]-N,2-dimethyl-5-oxo-thiazolo[3,2-a]pyrimidine-3-carboxamide]
6.1	Cc1sc2nc(Cc3cccc(C#N)c3F)cc(=O)n2c1C1CC1(F)F (centres unmarked) [compound 39, 3-[[3-(2,2-Difluorocyclopropyl)-2-methyl-5-oxo-thiazolo[3,2-a]pyrimidin-7-yl]methyl]-2-fluorobenzonitrile]
1.32	CCNC(=O)c1c(C(F)(F)F)sc2nc(Cc3cccc(C(F)(F)F)c3F)cc(=O)n12 [compound 40, N-ethyl-7-[[2-fluoro-3-(trifluoromethyl)phenyl]methyl]-5-oxo-2-(trifluoromethyl)thiazolo[3,2-a]pyrimidine-3-carboxamide]
4.78	CCNC(=O)c1c(C(F)(F)F)sc2nc(Cc3cccc(C#N)c3F)cc(=O)n12 [compound 41, 7-[(3-cyano-2-fluoro-phenyl)methyl]-N-ethyl-5-oxo-2-(trifluoromethyl)thiazolo[3,2-a]pyrimidine-3-carboxamide]
1.57	CCNC(=O)c1c(C(F)(F)F)sc2nc(Cc3cccc(C(F)F)c3F)cc(=O)n12 [compound 42, 7-[[3-(difluoromethyl)-2-fluoro-phenyl]methyl]-N-ethyl-5-oxo-2-(trifluoromethyl)thiazolo[3,2-a]pyrimidine-3-carboxamide]
7.66	CCNC(=O)c1c(C)sc2nc(Oc3cccc(C(F)(F)F)c3F)cc(=O)n12 [compound 48, N-ethyl-7-[2-fluoro-3-(trifluoromethyl)phenoxy]-2-methyl-5-oxo-thiazolo[3,2-a]pyrimidine-3-carboxamide]
17.5	CCNC(=O)c1c(C)sc2nc(Cc3cc(C)cc(C#N)c3F)cc(=O)n12 [compound 49, 7-[(3-cyano-2-fluoro-5-methyl-phenyl)methyl]-N-ethyl-2-methyl-5-oxo-thiazolo[3,2-a]pyrimidine-3-carboxamide]
6.4	CCNC(=O)c1c(C(F)(F)F)sc2nc(Cc3cccc(Cl)c3F)cc(=O)n12 [compound 50, 7-[(3-chloro-2-fluoro-phenyl)methyl]-N-ethyl-5-oxo-2-(trifluoromethyl)thiazolo[3,2-a]pyrimidine-3-carboxamide]
3.16	Cc1sc2nc(Cc3cccc(C(F)(F)F)c3F)cc(=O)n2c1C(=O)NCC(F)(F)F [compound 51, 7-[[2-fluoro-3-(trifluoromethyl)phenyl]methyl]-2-methyl-5-oxo-N-(2,2,2-trifluoroethyl)thiazolo[3,2-a]pyrimidine-3-carboxamide]
8.22	CNC(=O)c1c(C)sc2nc(Oc3cccc(C(F)(F)F)c3F)cc(=O)n12 [compound 59, 7-[2-fluoro-3-(trifluoromethyl)phenoxy]-N,2-dimethyl-5-oxo-thiazolo[3,2-a]pyrimidine-3-carboxamide]
3.22	CCNC(=O)c1c(Cl)sc2nc(Cc3cccc(C(F)(F)F)c3F)cc(=O)n12 [compound 60, 2-chloro-N-ethyl-7-[[2-fluoro-3-(trifluoromethyl)phenyl]methyl]-5-oxo-thiazolo[3,2-a]pyrimidine-3-carboxamide]
